Patent US6506774B1, “Use of orexin receptor antagonists” (SmithKline Beecham p.l.c., priority 1999, dated 2003)

Experiments:
rats = assay: Rat sleep/EEG studies; format: in vivo; conditions: central administration at the onset of the normal sleep period
Excerpt: Therefore antagonists of its receptor may be useful in the treatment of sleep disorders including insomnia.

freely-feeding rats = conditions: central administration, 4 hour time period; cited from earlier work

Substance: orexin-A: peptide ligand (agonist) of the orexin-1 receptor; amino acid sequence given in the 1st table (QPLPDCCRQKTCSCRLYELLHGAGNHAAGILTL; Orexin-A; UniProt O43612 34-66, looked up)
- arousal (rats): dose-related increase in arousal
- paradoxical sleep and slow wave sleep 2 (rats): reduction in paradoxical sleep and slow wave sleep 2
- increase in food intake over control rats receiving vehicle (freely-feeding rats): approximately four-fold
